The values that follow come from patent US20240317718A1, “SUBSTITUTED HETEROCYCLIC COMPOUNDS” (BRISTOL-MYERS SQUIBB COMPANY, priority 2021, published 2024).

In general, Papp A→B refers to the apparent permeability from the apical to the basolateral side of a cell layer. Higher therefore signals ready permeation. As a reminder, the efflux ratio is the permeability from basolateral to apical divided by that in the opposite direction, in the common usage. The term IC50 denotes the concentration that inhibits the measured activity by half.

For one series, the system named is Caco-2 cells. As to conditions: human, Caco-2, 2 h, 3 μM, pH 7.4.
A short description of the next series: in vitro. As to conditions: human, Caco-2, pH 7.4.
Series [1] deals with IFNα-induced pSTAT5 (Tyk2-mediated signal transduction). Briefly: IFNα-induced STAT phosphorylation in human whole blood. In kind it is cell-based. As to conditions: 1 h incubation with compound, 1000 U/mL IFNα A/D for 15 min, CD3 positive population, read-out: Human Whole blood IFNa pSTAT5 IC50. On the procedure: IFNα-Induced STAT Phosphorylation in Human Whole Blood
After an hour long incubation with compound, human whole blood (drawn with ACD-A as anticoagulant) was stimulated with 1000 U/mL recombinant human IFNα A/D (R&D Systems 11200-2) for 15 min. The stimulation was stopped by adding Fix/Lyse buffer (BD 558049). Cells were stained with a CD3 FITC antibody (BD 555916), washed, and permeabilized on ice using Perm III buffer (BD 558050). Cells were then stained with an Alexa-Fluor 647 pSTAT5 (pY694) antibody (BD 612599) for 60 min prior to analysis on the iQue Plus. The amount of pSTAT5 expression was quantitated by median fluorescence intensity after gating on the CD3 positive population.

With `[2H]C([2H])([2H])NC(=O)c1nnc(NC(=O)C2CC2)cc1Nc1cccc(-c2noc(COCC)n2)c1OC` [Example 3, 6-cyclopropaneamido-4-({3-[5-(ethoxymethyl)-1,2,4-oxadiazol-3-yl]-2-methoxyphenyl}amino)-N-(^2H3)methylpyridazine-3-carboxamide], the “CACO2 (A-B)” value in the series on Caco-2 cells worked out at 553 nm/s.
On the same count and under the same terms, for `[2H]C([2H])([2H])NC(=O)c1nnc(NC(=O)C2CC2)cc1Nc1cccc(-c2noc(CCOC)n2)c1OC` [Example 4, 6-cyclopropaneamido-4-({2-methoxy-3-[5-(2-methoxyethyl)-1,2,4-oxadiazol-3-yl]phenyl}amino)-N-(^2H3)methylpyridazine-3-carboxamide] the value was 591 nm/s.
`[2H]C([2H])([2H])NC(=O)c1nnc(NC(=O)C2CC2)cc1Nc1cccc(-c2cnc(C)cn2)c1OC` [Example 23, 6-cyclopropaneamido-4-{[2-methoxy-3-(5-methylpyrazin-2-yl)phenyl]amino}-N-(^2H3)methylpyridazine-3-carboxamide]: in “in vitro”, the apparent permeability from apical to basolateral (Papp A→B) at 2 h, 3 μM is 17.4 ×10⁻⁶ cm/s and the efflux ratio at 2 h, 3 μM came out at 1.4. Also, the IC50 in series [1] was determined as 243 nM.
On to `[2H]C([2H])([2H])NC(=O)c1nnc(NC(=O)C2CC2)cc1Nc1cccc(-c2ccc(C(C)(C)C#N)cn2)c1OC` [Example 24, 4-({3-[5-(1-cyano-1-methylethyl)pyridin-2-yl]-2-methoxyphenyl}amino)-6-cyclopropaneamido-N-(^2H3)methylpyridazine-3-carboxamide], for which, in the series “in vitro”, the apical-to-basolateral permeability (Papp A→B) at 2 h, 3 μM is 14.8 ×10⁻⁶ cm/s and the efflux ratio at 2 h, 3 μM was determined as 1.2. Besides, in series [1], the concentration for half-maximal inhibition (IC50) was found to be 426 nM.
On the same counts, the results for `[2H]C([2H])([2H])NC(=O)c1nnc(NC(=O)C2CC2)cc1Nc1ccc(F)c(-c2cnn(C)c2)c1OC` [Example 26, 6-cyclopropaneamido-4-{[4-fluoro-2-methoxy-3-(1-methyl-1H-pyrazol-4-yl)phenyl]amino}-N-(^2H3)methylpyridazine-3-carboxamide] are 30 ×10⁻⁶ cm/s, 1 and 201 nM.
For `[2H]C([2H])([2H])NC(=O)c1nnc(NC(=O)C2CC2)cc1Nc1cc(F)cc(-c2cnn(C)c2)c1OC` [Example 27, 6-cyclopropaneamido-4-{[5-fluoro-2-methoxy-3-(1-methyl-1H-pyrazol-4-yl)phenyl]amino}-N-(^2H3)methylpyridazine-3-carboxamide], in that order: 31.2 ×10⁻⁶ cm/s, 0.9 and 177 nM.
For `[2H]C([2H])([2H])NC(=O)c1nnc(NC(=O)C2CC2)cc1Nc1cccc(-c2cnn(C3CC3)c2)c1OC` [Example 28, 6-cyclopropaneamido-4-{[3-(1-cyclopropyl-1H-pyrazol-4-yl)-2-methoxyphenyl]amino}-N-(^2H3)methylpyridazine-3-carboxamide], in that order: 27.4 ×10⁻⁶ cm/s, 0.7 and 425 nM.
In the case of `[2H]C([2H])([2H])NC(=O)c1nnc(NC(=O)C2CC2)cc1Nc1cccc(-c2cnc(C#N)cn2)c1OC` [Example 29, 4-{[3-(5-cyanopyrazin-2-yl)-2-methoxyphenyl]amino}-6-cyclopropaneamido-N-(^2H3)methylpyridazine-3-carboxamide], in the series “in vitro”, the apparent permeability from apical to basolateral (Papp A→B) at 2 h, 3 μM came out at 31.7 ×10⁻⁶ cm/s and the efflux ratio at 2 h, 3 μM was 0.5. Besides, the half-inhibitory concentration (IC50) in series [1] amounted to 417 nM.
As for `[2H]C([2H])([2H])NC(=O)c1nnc(NC(=O)C2CC2)cc1Nc1nccc(-c2cnn(C3CC3)c2)c1OC` [Example 30, 6-cyclopropaneamido-4-{[4-(1-cyclopropyl-1H-pyrazol-4-yl)-3-methoxypyridin-2-yl]amino}-N-(^2H3)methylpyridazine-3-carboxamide], in the series “in vitro”, the Papp A→B at 2 h, 3 μM is 22.7 ×10⁻⁶ cm/s and the efflux ratio at 2 h, 3 μM is 0.5. Also, the IC50 in series [1] was 193 nM.
For `[2H]C([2H])([2H])NC(=O)c1nnc(NC(=O)C2CC2)cc1Nc1nccc(-c2cn(C)nc2C)c1OC` [Example 31, 6-cyclopropaneamido-4-{[4-(1,3-dimethyl-1H-pyrazol-4-yl)-3-methoxypyridin-2-yl]amino}-N-(^2H3)methylpyridazine-3-carboxamide], in that order: 39.3 ×10⁻⁶ cm/s, 1 and 289 nM.
For `[2H]C([2H])([2H])NC(=O)c1nnc(NC(=O)C2CC2)cc1Nc1nccc(-c2cnn(C)c2C)c1OC` [Example 32, 6-cyclopropaneamido-4-{[4-(1,5-dimethyl-1H-pyrazol-4-yl)-3-methoxypyridin-2-yl]amino}-N-(^2H3)methylpyridazine-3-carboxamide], in that order: 31.5 ×10⁻⁶ cm/s, 0.9 and 437 nM.
For `[2H]C([2H])([2H])NC(=O)c1nnc(NC(=O)C2CC2)cc1Nc1nccc(-c2nccs2)c1OC` [Example 33, 6-cyclopropaneamido-4-{[3-methoxy-4-(1,3-thiazol-2-yl)pyridin-2-yl]amino}-N-(^2H3)methylpyridazine-3-carboxamide], in that order: 38.3 ×10⁻⁶ cm/s, 0.4 and 207 nM.
With `[2H]C([2H])([2H])NC(=O)c1nnc(NC(=O)C2CC2)cc1Nc1cccc(-c2ccns2)c1OC` [Example 34, 6-cyclopropaneamido-4-{[2-methoxy-3-(1,2-thiazol-5-yl)phenyl]amino}-N-(^2H3)methylpyridazine-3-carboxamide], in “in vitro”, the apical-to-basolateral permeability (Papp A→B) at 2 h, 3 μM was 23.3 ×10⁻⁶ cm/s and the efflux ratio at 2 h, 3 μM was determined as 1.1. For the same molecule, the half-maximal inhibitory concentration (IC50) in series [1] was determined as 474 nM.
For `[2H]C([2H])([2H])NC(=O)c1nnc(NC(=O)C2CC2)cc1Nc1cccc(-c2ccsn2)c1OC` [Example 35, 6-cyclopropaneamido-4-{[2-methoxy-3-(1,2-thiazol-3-yl)phenyl]amino}-N-(^2H3)methylpyridazine-3-carboxamide], in that order: 42.2 ×10⁻⁶ cm/s, 0.5 and 121 nM.
For `[2H]C([2H])([2H])NC(=O)c1nnc(NC(=O)C2CC2)cc1Nc1cccc(-c2cnsc2)c1OC` [Example 36, 6-cyclopropaneamido-4-{[2-methoxy-3-(1,2-thiazol-4-yl)phenyl]amino}-N-(^2H3)methylpyridazine-3-carboxamide], in that order: 20.3 ×10⁻⁶ cm/s, 0.9 and 225 nM.
On the same counts, the results for `[2H]C([2H])([2H])NC(=O)c1nnc(NC(=O)C2CC2)cc1Nc1cc(F)cc(-c2cocn2)c1OC` [Example 37, 6-cyclopropaneamido-4-{[5-fluoro-2-methoxy-3-(1,3-oxazol-4-yl)phenyl]amino}-N-(^2H3)methylpyridazine-3-carboxamide] are 35.4 ×10⁻⁶ cm/s, 0.4 and 84 nM.
In the case of `[2H]C([2H])([2H])NC(=O)c1nnc(NC(=O)C2CC2)cc1Nc1nccc(-c2cnsc2)c1OC` [Example 38, 6-cyclopropaneamido-4-{[3-methoxy-4-(1,2-thiazol-4-yl)pyridin-2-yl]amino}-N-(^2H3)methylpyridazine-3-carboxamide], in the series “in vitro”, the Papp A→B at 2 h, 3 μM was determined as 59.5 ×10⁻⁶ cm/s and the efflux ratio at 2 h, 3 μM came to 0.5. The IC50 in series [1] is 381 nM.
As to `[2H]C([2H])([2H])NC(=O)c1nnc(NC(=O)C2CC2)cc1Nc1nccc(-c2nc(C)ns2)c1OC` [Example 39, 6-cyclopropaneamido-4-{[3-methoxy-4-(3-methyl-1,2,4-thiadiazol-5-yl)pyridin-2-yl]amino}-N-(^2H3)methylpyridazine-3-carboxamide], in “in vitro”, the Papp A→B at 2 h, 3 μM worked out at 46.3 ×10⁻⁶ cm/s and the efflux ratio at 2 h, 3 μM was 0.3. The half-inhibitory concentration (IC50) in series [1] came out at 159 nM.
On the same counts, the results for `[2H]C([2H])([2H])NC(=O)c1nnc(NC(=O)[C@@H]2C[C@H]2C)cc1Nc1nccc(-c2nc(C)ns2)c1OC` [Example 40, 4-{[3-methoxy-4-(3-methyl-1,2,4-thiadiazol-5-yl)pyridin-2-yl]amino}-N-(^2H3)methyl-6-[(1R,2R)-2-methylcyclopropaneamido]pyridazine-3-carboxamide] are 12.6 ×10⁻⁶ cm/s, 0.3 and 179 nM.
In the case of `[2H]C([2H])([2H])NC(=O)c1nnc(NC(=O)C2CC2)cc1Nc1nccc(-c2ncns2)c1OC` [Example 41, 6-cyclopropaneamido-4-{[3-methoxy-4-(1,2,4-thiadiazol-5-yl)pyridin-2-yl]amino}-N-(^2H3)methylpyridazine-3-carboxamide], in the series “in vitro”, the apparent permeability from apical to basolateral (Papp A→B) at 2 h, 3 μM came out at 27.7 ×10⁻⁶ cm/s and the efflux ratio at 2 h, 3 μM worked out at 0.4. Besides, the IC50 in series [1] turned out to be 175 nM.
On the same counts, the results for `[2H]C([2H])([2H])NC(=O)c1nnc(NC(=O)C2CC2)cc1Nc1nccc(-c2cnn(C(F)F)c2)c1OC` [Example 42, 6-cyclopropaneamido-4-({4-[1-(difluoromethyl)-1H-pyrazol-4-yl]-3-methoxypyridin-2-yl}amino)-N-(^2H3)methylpyridazine-3-carboxamide] are 26.6 ×10⁻⁶ cm/s, 0.4 and 193 nM.
On the same counts, the results for `[2H]C([2H])([2H])NC(=O)c1nnc(NC(=O)C2CC2)cc1Nc1cccc(-c2noc(CC)n2)c1OC` [Example 43, 6-cyclopropaneamido-4-{[3-(5-ethyl-1,2,4-oxadiazol-3-yl)-2-methoxyphenyl]amino}-N-(^2H3)methylpyridazine-3-carboxamide] are 24.2 ×10⁻⁶ cm/s, 0.8 and 443 nM.
